In PubChem BioAssay (NCI):
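Each compound was tested at five concentrations against cells in 96-well plates for 48 hours. GI50 is the concentration that inhibits growth by half. TGI marks complete inhibition of growth.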

Assays:
Test in all cases: NCI-60 cell line screen, 48 h
HCT-15 colon = system: HCT-15 colon
NCI/ADR-RES ovarian = system: NCI/ADR-RES ovarian
HCT-116 colon = system: HCT-116 colon
NCI-H226 lung = system: NCI-H226 lung
HOP-62 NSCLC = system: HOP-62 NSCLC
ACHN renal = system: ACHN renal
SK-MEL-28 melanoma = system: SK-MEL-28 melanoma
NCI-H23 lung = system: NCI-H23 lung
MCF7 breast = system: MCF7 breast
UO-31 renal = system: UO-31 renal
SF-295 CNS = system: SF-295 CNS
LOX IMVI melanoma = system: LOX IMVI melanoma
SF-268 CNS = system: SF-268 CNS
HS 578T breast = system: HS 578T breast
OVCAR-8 ovarian = system: OVCAR-8 ovarian
SK-MEL-2 melanoma = system: SK-MEL-2 melanoma
HOP-92 NSCLC = system: HOP-92 NSCLC
HL-60(TB) leukemia = system: HL-60(TB) leukemia
MDA-MB-468 breast = system: MDA-MB-468 breast
A498 renal = system: A498 renal
U251 CNS = system: U251 CNS
A549 NSCLC = system: A549 NSCLC
SK-MEL-5 melanoma = system: SK-MEL-5 melanoma
UACC-62 melanoma = system: UACC-62 melanoma
MDA-MB-231 breast = system: MDA-MB-231 breast
IGROV1 ovarian = system: IGROV1 ovarian
UACC-257 melanoma = system: UACC-257 melanoma
NCI-H522 lung = system: NCI-H522 lung
PC-3 prostate = system: PC-3 prostate
NCI-H460 lung = system: NCI-H460 lung

## N#C/C(=C1/C(=O)Nc2ccccc21)c1nnc(NC(=O)c2ccc(-n3c(=O)[nH]c4ccccc4c3=O)cc2)s1
HCT-15 colon
  GI50: 27.3 µM
  TGI: > 100 µM
NCI/ADR-RES ovarian
  GI50: 33.8 µM
  TGI: > 100 µM
HCT-116 colon
  GI50: 32.6 µM
  TGI: > 100 µM
NCI-H226 lung
  GI50: 17.6 µM
  TGI: > 100 µM
HOP-62 NSCLC
  GI50: > 100 µM
  TGI: > 100 µM
ACHN renal
  GI50: 53.8 µM
  TGI: > 100 µM
SK-MEL-28 melanoma
  GI50: 65.9 µM
  TGI: > 100 µM
NCI-H23 lung
  GI50: 45.2 µM
  TGI: > 100 µM
MCF7 breast
  GI50: 18.3 µM
  TGI: > 100 µM
UO-31 renal
  GI50: 31.8 µM
  TGI: > 100 µM
SF-295 CNS
  GI50: 45.9 µM
  TGI: > 100 µM
LOX IMVI melanoma
  GI50: 21.6 µM
  TGI: > 100 µM
SF-268 CNS
  GI50: 34.9 µM
  TGI: > 100 µM
HS 578T breast
  GI50: 27.4 µM
  TGI: > 100 µM
OVCAR-8 ovarian
  GI50: 67.6 µM
  TGI: > 100 µM
SK-MEL-2 melanoma
  GI50: > 100 µM
  TGI: > 100 µM
HOP-92 NSCLC
  GI50: 33.8 µM
  TGI: > 100 µM
HL-60(TB) leukemia
  GI50: 13.6 µM
  TGI: 45.4 µM
MDA-MB-468 breast
  GI50: 11 µM
  TGI: 56.1 µM
A498 renal
  GI50: > 100 µM
  TGI: > 100 µM
U251 CNS
  GI50: > 100 µM
  TGI: > 100 µM
A549 NSCLC
  GI50: 54.7 µM
  TGI: > 100 µM
SK-MEL-5 melanoma
  GI50: 32.2 µM
  TGI: > 100 µM
UACC-62 melanoma
  GI50: 47.4 µM
  TGI: > 100 µM
MDA-MB-231 breast
  GI50: 38.4 µM
  TGI: > 100 µM
IGROV1 ovarian
  GI50: 40.5 µM
  TGI: > 100 µM
UACC-257 melanoma
  GI50: 46.2 µM
  TGI: > 100 µM
NCI-H522 lung
  GI50: 13.2 µM
  TGI: 71.7 µM
PC-3 prostate
  GI50: 30.3 µM
  TGI: > 100 µM
NCI-H460 lung
  GI50: 26 µM
